Here are results for one cell line from the supplement of paper PMC10307832.

Common to all, as to assay: relative viability (nuclei count vs DMSO), 5 days (fraction); higher = more cells survive
Compound in assay [1]: O=C(/C=C/c1ccccc1)NC(NC(=S)Nc1cccc2cccnc12)C(Cl)(Cl)Cl [Salubrinal] + CCNC(=O)c1noc(-c2cc(C(C)C)c(O)cc2O)c1-c1ccc(CN2CCOCC2)cc1 [Luminespib] (partner 0.01 µM)
Summed up:
(§1)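 Relative viability divides the nuclei count in treated wells by that in vehicle wells. Lung cancer cell lines were seeded in 1536-well plates, dosed by pin tool the next day, and fixed and stained after 5 days in one step with final 0.05% Triton X-100, 1% formaldehyde and 1 ug/ml Hoechst. Dosing was a single drug or a fixed anchor-drug dose plus five library-drug doses (not always all listed) in √10 steps, and values are medians of duplicate plates imaged at 4×.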

Compound in assay [2]: Cc1ccc2nc(NCCN)c3ncc(C)n3c2c1 + CCNC(=O)c1noc(-c2cc(C(C)C)c(O)cc2O)c1-c1ccc(CN2CCOCC2)cc1 [Luminespib] (partner 0.01 µM)
Summed up:
as §1

Compound in assay [3]: O=C(/C=C/c1ccccc1)NC(NC(=S)Nc1cccc2cccnc12)C(Cl)(Cl)Cl [Salubrinal] + CC(=O)Nc1cccc(-n2c(=O)n(C3CC3)c(=O)c3c(Nc4ccc(I)cc4F)n(C)c(=O)c(C)c32)c1 [Trametinib] (partner 0.02 µM)
In a few lines:
as §1

Compound in assay [4]: O=C(/C=C/c1ccccc1)NC(NC(=S)Nc1cccc2cccnc12)C(Cl)(Cl)Cl [Salubrinal] + CS(=O)(=O)CCNCc1ccc(-c2ccc3ncnc(Nc4ccc(OCc5cccc(F)c5)c(Cl)c4)c3c2)o1 [Lapatinib] (partner 2 µM)
Summed up:
as §1

Consider UMC-11, for which the relative viability in assay [1] (first compound 0.08 µM) came to 1.06; in assay [1] (first compound 0.253 µM) it was 0.835; in assay [1] (first compound 0.8 µM), 1.14; in assay [1] (first compound 2.53 µM), 1.05; in assay [1] (first compound 8 µM), 1.14; in assay [2] (first compound 0.04 µM) it was 1.02. For the same cell line, the relative viability in assay [2] (first compound 0.1265 µM) is 0.834; in assay [2] (first compound 0.4 µM), 1; in assay [2] (first compound 1.265 µM), 0.996; in assay [2] (first compound 4 µM) it was 0.894; in assay [3] (first compound 0.08 µM) it was 0.468; in assay [3] (first compound 0.253 µM), 0.749. Moreover, the relative viability in assay [3] (first compound 0.8 µM) worked out at 0.741; in assay [3] (first compound 2.53 µM) it was 0.775; in assay [3] (first compound 8 µM), 0.826; in assay [4] (first compound 0.08 µM), 0.931; in assay [4] (first compound 0.253 µM), 0.918; in assay [4] (first compound 0.8 µM), 1.48. The relative viability came to 1.11 in assay [4] (first compound 2.53 µM) and 1.16 in assay [4] (first compound 8 µM).
